In ChEMBL document CHEMBL2385059, “3-Hydroxyquinolin-2(1H)-ones As Inhibitors of Influenza A Endonuclease” (ACS Med Chem Lett, 2013):
pIC50: −log10 of the molar value.

Columns and labels:
[1] = Inhibition of H1N1 Influenza A endonuclease after 1 hr by fluorescence assay; design: species or system Influenza A virus
MDCK = test: Cytotoxicity against dog MDCK cells after 4 days by MTT assay; type: cell-based; details: Canis lupus familiaris, 96 h
HEK293 = test: Cytotoxicity against HEK293 cells after 4 days by MTT assay; type: cell-based; details: Homo sapiens, HEK293, 96 h

## Oc1nc2ccccc2c(Br)c1O
[1]
  pIC50: 4.28

## O=c1[nH]c2cc(-c3ccc(F)cc3)ccc2c(Br)c1O
[1]
  pIC50: 5.96

## O=c1[nH]c2cc(-c3ccc(F)cc3)ccc2c(-c2ccccc2)c1O
[1]
  pIC50: 5.70

## Cc1c(O)c(=O)[nH]c2cc(-c3ccc(F)cc3)ccc12
[1]
  pIC50: 4.89

## O=c1[nH]c2cccc(Br)c2cc1O
MDCK
  pIC50: < 5.00
HEK293
  pIC50: < 5.00
[1]
  pIC50: 4.92

## O=c1[nH]c2ccc(Br)cc2cc1O
MDCK
  pIC50: < 5.00
HEK293
  pIC50: < 5.00
[1]
  pIC50: 5.13

## O=c1[nH]c2cc(Br)ccc2cc1O
MDCK
  pIC50: < 5.00
HEK293
  pIC50: < 5.00
[1]
  pIC50: 5.12

## O=c1[nH]c2c(Br)cccc2cc1O
MDCK
  pIC50: < 5.00
HEK293
  pIC50: < 5.00
[1]
  pIC50: 4.96

## O=c1[nH]c2cccc(-c3ccc(F)cc3)c2cc1O
[1]
  pIC50: 5.48

## O=c1[nH]c2ccc(-c3ccc(F)cc3)cc2cc1O
[1]
  pIC50: 6.30

## O=c1[nH]c2cc(-c3ccc(F)cc3)ccc2cc1O
[1]
  pIC50: 6.30

## O=c1[nH]c2c(-c3ccc(F)cc3)cccc2cc1O
[1]
  pIC50: 5.33

## O=c1[nH]c2ccccc2c(-c2ccc(F)cc2)c1O
[1]
  pIC50: 4.96

## O=c1[nH]c2ccccc2c(-c2ccccc2)c1O
[1]
  pIC50: < 4.70

## Cc1c(O)c(=O)[nH]c2ccccc12
[1]
  pIC50: < 4.00
